Experimental data as given in patent publication US20230183193A1, “4-DIFLUOROMETHYL BENZOYL AMIDES WITH HERBICIDAL ACTION” (BAYER CROPSCIENCE AKTIENGESELLSCHAFT, priority 2017, published 2023).

Tests used:
Format in all cases: in vivo
Viola tricolor [1] = experiment: Post-emergence herbicidal action, VIOTR; details: 80 g/ha, Table D
Protocol: (§1) Seeds of monocotyledonous and dicotyledonous weed and crop plants are laid out in sandy loam soil in wood-fiber pots, covered with soil and cultivated in a greenhouse under good growth conditions. 2 to 3 weeks after sowing, the test plants are treated at the one-leaf stage. The compounds of the invention, formulated in the form of wettable powders (WP) or as emulsion concentrates (EC), are then sprayed onto the green parts of the plants in the form of an aqueous suspension or emulsion at a water application rate equating to […], with addition of 0.2% wetting agent. After the test plants have been left to stand in the greenhouse under optimal growth conditions for about 3 weeks, the action of the preparations is assessed visually in comparison to untreated controls (herbicidal action in percent (%): 100% activity=the plants have died, 0% activity=like control plants). […] At the same time, inventive compounds leave Gramineae crops such as barley, wheat, rye, millet/sorghum, corn or rice virtually undamaged when applied post-emergence, even at high active compound dosages. In addition, some substances are also harmless to dicotyledonous crops such as soya, cotton, oilseed rape, sugar beet or potatoes. Some of the compounds according to the invention have high selectivity and are therefore suitable for controlling unwanted vegetation in agricultural crops by the post-emergence method. The data of Tables C and D below illustrate, in an exemplary manner, the […] herbicidal action of the compounds according to the invention, the herbicidal activity being stated in percent.
(§2) For comparison, the herbicidal activity of numerous compounds according to the invention was tested with the structurally closest compounds known from the documents WO 2011/035874, WO 2012/028579 and WO 2012/126932, by the pre- and post-emergence method.

Stellaria media [2] = experiment: Pre-emergence herbicidal action, STEME; details: dosage 320 g/ha, scored visually after 3 weeks vs untreated controls
From the text: (§3) 1. Pre-Emergence Herbicidal Action Against Harmful Plants Seeds of monocotyledonous and dicotyledonous weed plants and crop plants are laid out in sandy loam soil in wood-fiber pots and covered with soil. The compounds of the invention, formulated in the form of wettable powders (WP) or as emulsion concentrates (EC), are then applied to the surface of the covering soil in the form of an aqueous suspension or emulsion at a water application rate equating to […], with addition of 0.2% wetting agent. After the treatment, the pots are placed in a greenhouse and kept under good growth conditions for the trial plants. The damage to the test plants is scored visually after a test period of 3 weeks by comparison with untreated controls (herbicidal activity in percent (%): 100% activity=the plants have died, 0% activity=like control plants).
as §2

Abutilon theophrasti [3] = experiment: Post-emergence herbicidal action, ABUTH; details: 80 g/ha, Table D
Protocol: as §1, §2

Amaranthus retroflexus [4] = experiment: Pre-emergence herbicidal action, AMARE; details: dosage 320 g/ha, scored visually after 3 weeks vs untreated controls
From the text: as §3, §2

Viola tricolor [5] = experiment: Pre-emergence herbicidal action, VIOTR; details: dosage 320 g/ha, scored visually after 3 weeks vs untreated controls
From the text: as §3, §2

Amaranthus retroflexus [6] = experiment: Post-emergence herbicidal action, AMARE; details: 80 g/ha, Table D
Protocol: as §1, §2

ECHCG = experiment: Post-emergence herbicidal action, ECHCG; details: 80 g/ha, Table C
Protocol: as §1

Stellaria media [7] = experiment: Post-emergence herbicidal action, STEME; details: 80 g/ha, Table D
Protocol: as §1, §2

Pharbitis purpureum = experiment: Post-emergence herbicidal action, PHBPU; details: 80 g/ha, Table D
Protocol: as §1, §2

Matricaria inodora = experiment: Pre-emergence herbicidal action, MATIN; details: dosage 320 g/ha, scored visually after 3 weeks vs untreated controls
From the text: as §3, §2

Setaria viridis [8] = experiment: Post-emergence herbicidal action, SETVI; details: 80 g/ha, Table C
Protocol: as §1, §2

Abutilon theophrasti [9] = experiment: Pre-emergence herbicidal action, ABUTH; details: dosage 320 g/ha, scored visually after 3 weeks vs untreated controls
From the text: as §3, §2

Setaria viridis [10] = experiment: Pre-emergence herbicidal action, SETVI; details: dosage 320 g/ha, scored visually after 3 weeks vs untreated controls
From the text: as §3, §2

Avena fatua = experiment: Pre-emergence herbicidal action, AVEFA; details: dosage 320 g/ha, scored visually after 3 weeks vs untreated controls
From the text: as §3, §2

Alopecurus myosuroides = experiment: Pre-emergence herbicidal action, ALOMY; details: dosage 320 g/ha, scored visually after 3 weeks vs untreated controls
From the text: as §3, §2

Cyperus serotinus = experiment: Pre-emergence herbicidal action, CYPES; details: dosage 320 g/ha, scored visually after 3 weeks vs untreated controls
From the text: as §3, §2

## CCSc1c(C(F)F)ccc(C(=O)Nc2ncnn2C)c1C [Example 4-4]
Viola tricolor [1]
  herbicidal activity VIOTR: 100%
Stellaria media [2]
  Herbicidal activity STEME: 100%
Abutilon theophrasti [3]
  herbicidal activity ABUTH: 80%
Amaranthus retroflexus [4]
  herbicidal activity AMARE: 100%
Viola tricolor [5]
  herbicidal activity VIOTR: 100%
Amaranthus retroflexus [6]
  herbicidal activity AMARE: 100%
ECHCG
  Herbicidal activity ECHCG: 100%
Stellaria media [7]
  Herbicidal activity STEME: 90%
Pharbitis purpureum
  Herbicidal activity PHBPU: 80%
Matricaria inodora
  herbicidal activity MATIN: 100%
Setaria viridis [8]
  herbicidal activity SETVI: 90%

## CC[S+]([O-])c1c(C(F)F)ccc(C(=O)Nc2ncnn2C)c1C (stereo not shown) [Example 4-5]
Viola tricolor [1]
  herbicidal activity VIOTR: 100%
Abutilon theophrasti [3]
  herbicidal activity ABUTH: 80%
Amaranthus retroflexus [4]
  herbicidal activity AMARE: 100%
Viola tricolor [5]
  herbicidal activity VIOTR: 100%
Amaranthus retroflexus [6]
  herbicidal activity AMARE: 90%
ECHCG
  Herbicidal activity ECHCG: 90%
Stellaria media [7]
  Herbicidal activity STEME: 90%
Pharbitis purpureum
  Herbicidal activity PHBPU: 90%
Matricaria inodora
  herbicidal activity MATIN: 90%
Setaria viridis [8]
  herbicidal activity SETVI: 90%

## CC[S+]([O-])c1c(C(F)F)ccc(C(=O)Nc2ncnn2C)c1F (stereo not shown) [Example 4-41]
Abutilon theophrasti [9]
  herbicidal activity ABUTH: 100%
Viola tricolor [1]
  herbicidal activity VIOTR: 90%
Setaria viridis [10]
  herbicidal activity SETVI: 80%
Stellaria media [2]
  Herbicidal activity STEME: 80%
Abutilon theophrasti [3]
  herbicidal activity ABUTH: 100%
Amaranthus retroflexus [4]
  herbicidal activity AMARE: 100%
Viola tricolor [5]
  herbicidal activity VIOTR: 90%
Amaranthus retroflexus [6]
  herbicidal activity AMARE: 90%
ECHCG
  Herbicidal activity ECHCG: 80%
Stellaria media [7]
  Herbicidal activity STEME: 90%
Pharbitis purpureum
  Herbicidal activity PHBPU: 90%

## CC[S+]([O-])c1c(C(F)F)ccc(C(=O)Nc2nonc2Cl)c1C (stereo not shown) [Example 6-5]
Abutilon theophrasti [9]
  herbicidal activity ABUTH: 100%
Viola tricolor [1]
  herbicidal activity VIOTR: 100%
Setaria viridis [10]
  herbicidal activity SETVI: 100%
Stellaria media [2]
  Herbicidal activity STEME: 90%
Abutilon theophrasti [3]
  herbicidal activity ABUTH: 80%
Amaranthus retroflexus [4]
  herbicidal activity AMARE: 100%
Viola tricolor [5]
  herbicidal activity VIOTR: 100%
ECHCG
  Herbicidal activity ECHCG: 100%
Stellaria media [7]
  Herbicidal activity STEME: 90%
Avena fatua
  herbicidal activity AVEFA: 90%
Alopecurus myosuroides
  herbicidal activity ALOMY: 90%
Matricaria inodora
  herbicidal activity MATIN: 90%
Setaria viridis [8]
  herbicidal activity SETVI: 90%

## CSc1c(C(F)F)ccc(C(=O)Nc2ncnn2C)c1F [Example 4-37]
Abutilon theophrasti [9]
  herbicidal activity ABUTH: 100%
Viola tricolor [1]
  herbicidal activity VIOTR: 80%
Stellaria media [2]
  Herbicidal activity STEME: 100%
Abutilon theophrasti [3]
  herbicidal activity ABUTH: 80%
Amaranthus retroflexus [4]
  herbicidal activity AMARE: 100%
Viola tricolor [5]
  herbicidal activity VIOTR: 90%
Amaranthus retroflexus [6]
  herbicidal activity AMARE: 100%
ECHCG
  Herbicidal activity ECHCG: 80%
Stellaria media [7]
  Herbicidal activity STEME: 80%
Matricaria inodora
  herbicidal activity MATIN: 100%
Setaria viridis [8]
  herbicidal activity SETVI: 90%

## CCSc1c(C(F)F)ccc(C(=O)Nc2nonc2Cl)c1C [Example 6-4]
Abutilon theophrasti [9]
  herbicidal activity ABUTH: 90%
Viola tricolor [1]
  herbicidal activity VIOTR: 100%
Setaria viridis [10]
  herbicidal activity SETVI: 100%
Stellaria media [2]
  Herbicidal activity STEME: 90%
Abutilon theophrasti [3]
  herbicidal activity ABUTH: 90%
Amaranthus retroflexus [4]
  herbicidal activity AMARE: 100%
Viola tricolor [5]
  herbicidal activity VIOTR: 100%
ECHCG
  Herbicidal activity ECHCG: 100%
Stellaria media [7]
  Herbicidal activity STEME: 90%
Avena fatua
  herbicidal activity AVEFA: 90%
Pharbitis purpureum
  Herbicidal activity PHBPU: 80%
Matricaria inodora
  herbicidal activity MATIN: 90%
Setaria viridis [8]
  herbicidal activity SETVI: 100%

## CCS(=O)(=O)c1c(C(F)F)ccc(C(=O)Nc2ncnn2C)c1C1CC1 [Example 4-30]
Abutilon theophrasti [9]
  herbicidal activity ABUTH: 100%
Viola tricolor [1]
  herbicidal activity VIOTR: 80%
Stellaria media [2]
  Herbicidal activity STEME: 90%
Abutilon theophrasti [3]
  herbicidal activity ABUTH: 80%
Amaranthus retroflexus [4]
  herbicidal activity AMARE: 90%
Viola tricolor [5]
  herbicidal activity VIOTR: 90%
Stellaria media [7]
  Herbicidal activity STEME: 90%
Cyperus serotinus
  herbicidal activity CYPES: 80%
Pharbitis purpureum
  Herbicidal activity PHBPU: 90%
Matricaria inodora
  herbicidal activity MATIN: 100%

## CSc1c(C(F)F)ccc(C(=O)Nc2ncnn2C)c1C1CC1 [Example 4-25]
Abutilon theophrasti [9]
  herbicidal activity ABUTH: 90%
Viola tricolor [1]
  herbicidal activity VIOTR: 90%
Stellaria media [2]
  Herbicidal activity STEME: 90%
Amaranthus retroflexus [4]
  herbicidal activity AMARE: 90%
Viola tricolor [5]
  herbicidal activity VIOTR: 100%
Amaranthus retroflexus [6]
  herbicidal activity AMARE: 90%
Stellaria media [7]
  Herbicidal activity STEME: 100%
Pharbitis purpureum
  Herbicidal activity PHBPU: 80%
Matricaria inodora
  herbicidal activity MATIN: 90%
